Like-named read-outs stand apart in the source and are kept apart here.
Columns and labels:
[1] = tested on: individual lesions of metastatic thyroid cancer; test: ^124I PET/CT imaging of lesion radioiodine uptake; format: in vivo, human; settings: 48 h after oral ^124I
Source text: Population. The present study includes consecutive 21 patients studied under two different RB-approved protocols who underwent imaging. Patients who were considered candidates for RAI treatment of DTC were enrolled. All patients had histologically confirmed, metastatic thyroid cancer.
Dosimetry and estimation of average lesion uptake. […] (FIG. 9).

[2] = tested on: metastatic thyroid cancer; settings: patients with any lesion with predicted dose >2000 cGy
Source text: Prediction of activity to deliver 2000 cGy. An operational definition in the methods disclosed herein is that a patient with any lesion with a predicted dose of >2000 cGy would likely respond to treatment. […] A total of 208 lesions are included in the analysis. The prediction is limited for lesions with an SUV >1, as no treatment is planned for lesions with no uptake. Lesions that received no treatment (n=39) were included in the analysis, as prediction is still feasible. […] In (SUV_48_)___.

[3] = median of 21 patients
Method: Maximum Tolerated Activity (MTA).
To perform these studies, serial blood samples and total body measurements were conducted to determine β- and photon radiation dose contributions to blood (a proxy for the dose-limiting bone marrow) from a pre-therapy tracer administration of either ^124I or ^131I.

[4] = tested on: individual lesions of metastatic thyroid cancer
Source text: Predicting AUC based on a single time point. One goal of this study was to use a single time point to predict the overall area under the radioiodine lesion activity retention curve to estimate the radiation-absorbed dose to lesions without the need for costly additional PET/CT imaging to fully characterize the kinetic behavior. […] For this estimation, the unit is the lesion, and a generalized estimating equation approach is used to estimate the parameters (intercept, slope, and robust variance matrix) accounting for the correlation between lesions in the same patient. Log-transformed values of the uptake and doses are used to ensure the data are normally distributed.
Second, using the estimations for R and the covariance matrix, a prediction interval (PI) is calculated. A PI differs from a confidence interval, as it aims to predict with 95% confidence where future measurements will fall. In our case, if we observed the same value of SUV at 48 h for 100 new lesions, the PI is the range in which 95 of those lesions' AUCs will be found. As difficulties arose when analytically constructing the PI, simulated prediction was used to calculate PIs following the steps detailed in Gelman and Hill, Data Analysis Using Regression and Multilevel/Hierarchical Models (1st Edition, 2007) and summarized in Appendix A.
To validate the accuracy of the prediction, a leave-one-patient-out cross-validation approach was used. For each patient i (i=1, . . . , n), the linear regression parameters are re-estimated using n−1 patients (excluding i), and PIs are calculated for each lesion in patient i based on their measured predictor values.
For those lesions, the actual observed AUC is then compared to the PI. When using 95% PI, it is expected that 95% of the observed values will fall into the corresponding PIs; i.e., 5% will be outside the prediction. In addition, for each left-out patient, an error of prediction is calculated corresponding to the squared difference between the predicted and true AUC values for each lesion. This squared error is average over all the lesions of all the patients to obtain a cross-validated error.
(§1) The target radiation dose of 2000 cGy was chosen because doses above this level are often used as the threshold for patients to receive further radioiodine treatment. Based on the PI now available for the AUC, a simple calculation of the relationship between ^124I and ^131I uptake can yield a PI for the dose [dlow−dhigh]. […] Thus, the higher boundary (dhigh) corresponds to the activity to treat 97.5% of the lesions with the given uptake. By varying this boundary, it is possible to select an activity that will target 95%, 90%, or fewer of the lesions.

[5] = tested on: individual lesions of metastatic thyroid cancer; remark: listed apart in the source
Method: Dosimetry and estimation of average lesion uptake. A workflow was established for four-time point measurement of individual lesion radioiodine kinetics to generate area under the curve (AUC) estimation for accurate determination of the radiation dose in Gray (Gy) to individual lesions in patients undergoing RAI therapy for DTC. Positron emission tomography (PET/CT) imaging was performed after oral administration of 222 MBq (6.0 mCi) of ^124I—NaI (3D Imaging, Waco, TX). Whole-body imaging was performed at 4, 24, 48, and 96 hours after oral administration of the radioactivity (FIG. 4). Regions of interest were obtained over all visible lesions >0.5 cm within the body and multiple parameters were obtained for later analysis. The following parameters were captured in a database for each patient and each lesion: size in three dimensions (cm); standardized uptake value (SUV), maximum and average; lean body weight; and activity concentration in microcurie/gram. (FIG. 9). For these patients, the best clearance fitting curve was estimated using a dual exponential equation model comprising lesion uptake and clearance. Prior to integration, clearance fitting was adjusted to replace the decay constant of ^124I with ^131I, the therapy isotope of interest, and then integrated to obtain the AUC. This AUC was multiplied by the equilibrium dose constant for the non-penetrating P-emissions of ^131I, yielding the lesion-absorbed dose in Gy.
Range of ^131I activity to treat a chosen efficacy rate for RAI in mDTC patients. A multi-disciplinary team of nuclear medicine specialists, endocrinologists, medical oncologists, and medical physicists met weekly to make treatment decisions based on the PET data generated, including data from the methods disclosed herein.
as §1
The full parameter data set consists of: anatomical descriptor, mean size (cm), lesion dose per projected unit millicurie of administered ^131I activity with and without partial volume correction (5), half-life based on a linear slop between day 3 and 5 as well as based on exponential curve fitting, area under the curve based on an integrated curve fit, estimated activity per gram at 48 and 72 hours post-administration, SUV and SUL (based on lean body mass) at 24, 48, and 72 hours post-administration, the administered activity to deliver 2,000 cGy, the radiation dose estimate resulting from the actual therapeutic amount administered to the patient, and the maximum projected dose that could have been achieved had the maximum tolerated activity been administered. This dataset was used as the input to derive a statistical model to predict the radiation dose to lesions.

With `[124I-].[Na+]` [^124I, ^124I—NaI] the “SUV(48 h)” value ([1]; patient 1, 13 lesions) was 8.03, the “SUV(48 h)” value ([1]; patient 2, 18 lesions) was 80.1 and the “SUV(48 h)” value ([1]; patient 3, 14 lesions) was 3.25. The “SUV(48 h)” value ([1]; patient 4, 12 lesions) was 7.4, the “SUV(48 h)” value ([1]; patient 5, 10 lesions) was 1.85 and the “SUV(48 h)” value ([1]; patient 6, 16 lesions) was 27.8. The “SUV(48 h)” value ([1]; patient 7, 23 lesions) was 35, the “SUV(48 h)” value ([1]; patient 8, 6 lesions) was 1.73 and the “SUV(48 h)” value ([1]; patient 9, 8 lesions) was 4.35. The “SUV(48 h)” value ([1]; patient 10, 4 lesions) was 26.2, the “SUV(48 h)” value ([1]; patient 11, 11 lesions) was 11.30 and the “SUV(48 h)” value ([1]; patient 12, 3 lesions) was 0.7. The “SUV(48 h)” value ([1]; patient 13, 13 lesions) was 1.30, the “SUV(48 h)” value ([1]; patient 14, 5 lesions) was 0.90 and the “SUV(48 h)” value ([1]; patient 15, 17 lesions) was 385.3. For the same compound, the “SUV(48 h)” value ([1]; patient 16, 6 lesions) was 8.30, the “SUV(48 h)” value ([1]; patient 17, 6 lesions) was 0.80 and the “SUV(48 h)” value ([1]; patient 18, 12 lesions) was 25.1. The “SUV(48 h)” value ([1]; patient 19, 17 lesions) was 204.6, the “SUV(48 h)” value ([1]; patient 20, 13 lesions) was 2.30 and the “SUV(48 h)” value ([1]; patient 21, 10 lesions) was 10.8.

With `[131I-].[Na+]` [^131I, Iodine-131] the “probability of complete reduction” value [2] was 100%, the “probability of durable partial RECIST response” value [2] was 75% and the “Maximum Tolerated Activity (mCi)” value [3] was 426 mCi. For the same compound, the “AUC 95% PI” value ([4]; SUV at 48 h 2) was 1.5-9.1 uCi · hr/g per mCi, the “AUC Mean Estimate” value ([4]; SUV at 48 h 2) was 4.0 uCi · hr/g per mCi and the “AUC 95% PI” value ([4]; SUV at 48 h 4) was 3.3-20.3 uCi · hr/g per mCi. The “AUC Mean Estimate” value ([4]; SUV at 48 h 4) was 8.1 uCi · hr/g per mCi, the “AUC 95% PI” value ([4]; SUV at 48 h 6) was 4.8-29.2 uCi · hr/g per mCi and the “AUC Mean Estimate” value ([4]; SUV at 48 h 6) was 12.1 uCi · hr/g per mCi. For the same compound, the “AUC 95% PI” value ([4]; SUV at 48 h 8) was 6.4-38.8 uCi · hr/g per mCi, the “AUC Mean Estimate” value ([4]; SUV at 48 h 8) was 16.1 uCi · hr/g per mCi and the “AUC 95% PI” value ([4]; SUV at 48 h 10) was 8.6-48.4 uCi · hr/g per mCi. For the same compound, the “AUC Mean Estimate” value ([4]; SUV at 48 h 10) was 20.2 uCi · hr/g per mCi, the “AUC 95% PI” value ([4]; SUV at 48 h 15) was 11.9-71.0 uCi · hr/g per mCi and the “AUC Mean Estimate” value ([4]; SUV at 48 h 15) was 30.3 uCi · hr/g per mCi. The “AUC 95% PI” value ([4]; SUV at 48 h 20) was 16.1-97.1 uCi · hr/g per mCi, the “AUC Mean Estimate” value ([4]; SUV at 48 h 20) was 40.4 uCi · hr/g per mCi and the “AUC 95% PI” value ([4]; SUV at 48 h 30) was 24.3-147.4 uCi · hr/g per mCi. The “AUC Mean Estimate” value ([4]; SUV at 48 h 30) was 60.6 uCi · hr/g per mCi, the “AUC 95% PI” value ([4]; SUV at 48 h 50) was 40.8-252.9 uCi · hr/g per mCi and the “AUC Mean Estimate” value ([4]; SUV at 48 h 50) was 101.2 uCi · hr/g per mCi. For the same compound, the “AUC 95% PI” value ([4]; SUV at 48 h 100) was 82.3-479.6 uCi · hr/g per mCi, the “AUC Mean Estimate” value ([4]; SUV at 48 h 100) was 202.6 uCi · hr/g per mCi and the “AUC 95% PI” value ([4]; SUV at 48 h 200) was 164.2-951.2 uCi · hr/g per mCi. For the same compound, the “AUC Mean Estimate” value ([4]; SUV at 48 h 200) was 405.8 uCi · hr/g per mCi, the “AUC 95% PI” value ([4]; SUV at 48 h 300) was 257.8-1476.2 uCi · hr/g per mCi and the “AUC Mean Estimate” value ([4]; SUV at 48 h 300) was 609.2 uCi · hr/g per mCi. For the same compound, the “Teff” value ([5]; patient 1, 13 lesions) was 8.02 days, the “Teff” value ([5]; patient 2, 18 lesions) was 4.28 days and the “Teff” value ([5]; patient 3, 14 lesions) was 0.45 days. For the same compound, the “Teff” value ([5]; patient 4, 12 lesions) was 3.16 days, the “Teff” value ([5]; patient 5, 10 lesions) was 1.48 days and the “Teff” value ([5]; patient 6, 16 lesions) was 1.59 days. The “Teff” value ([5]; patient 7, 23 lesions) was 2.48 days, the “Teff” value ([5]; patient 8, 6 lesions) was 4.41 days and the “Teff” value ([5]; patient 9, 8 lesions) was 3.03 days. The “Teff” value ([5]; patient 10, 4 lesions) was 1.26 days, the “Teff” value ([5]; patient 11, 11 lesions) was 2.98 days and the “Teff” value ([5]; patient 12, 3 lesions) was 3.8 days. The “Teff” value ([5]; patient 13, 13 lesions) was 1.55 days, the “Teff” value ([5]; patient 14, 5 lesions) was 1.74 days and the “Teff” value ([5]; patient 15, 17 lesions) was 3.79 days. The “Teff” value ([5]; patient 16, 6 lesions) was 4.77 days, the “Teff” value ([5]; patient 17, 6 lesions) was 8.04 days and the “Teff” value ([5]; patient 18, 12 lesions) was 1.69 days. For the same compound, the “Teff” value ([5]; patient 19, 17 lesions) was 1.55 days, the “Teff” value ([5]; patient 20, 13 lesions) was 1.74 days and the “Teff” value ([5]; patient 21, 10 lesions) was 4.63 days.

From patent US20250090865A1, “LESIONAL DOSIMETRY FOR TARGETED RADIOTHERAPY OF CANCER” (Memorial Sloan-Kettering Cancer Center, priority 2021, published 2025)
